Measured values: ChEMBL document CHEMBL1135153, “Cephalosporin-derived inhibitors of beta-lactamase. Part 4: The C3 substituent” (Bioorg Med Chem Lett, 2002)

These molecules were tested against Beta-lactamase (Enterobacter cloacae, UniProt P05364) (assay: Inhibitory activity against Class C beta-lactamase).
Beta-lactamase, sequence (P05364 whole entry): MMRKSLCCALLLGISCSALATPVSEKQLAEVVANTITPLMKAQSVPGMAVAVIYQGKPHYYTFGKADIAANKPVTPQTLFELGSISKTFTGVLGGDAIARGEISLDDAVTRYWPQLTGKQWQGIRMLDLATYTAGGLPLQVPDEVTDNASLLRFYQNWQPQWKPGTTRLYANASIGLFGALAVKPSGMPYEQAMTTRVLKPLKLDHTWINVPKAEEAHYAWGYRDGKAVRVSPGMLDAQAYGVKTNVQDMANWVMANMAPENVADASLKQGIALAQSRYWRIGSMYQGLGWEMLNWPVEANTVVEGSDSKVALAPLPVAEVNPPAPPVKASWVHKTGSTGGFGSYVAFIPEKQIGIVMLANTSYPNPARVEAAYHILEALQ

| SMILES | IC50 |
| --- | --- |
| O=C(O)C1=CCS(=O)(=O)[C@@H]2/C(=C\c3ccccn3)C(=O)N12 | 116 nM |
| NC(=O)/C=C/C1=C(C(=O)O)N2C(=O)/C(=C/c3ccccn3)[C@H]2S(=O)(=O)C1 | 22 nM |
| O=C(/C=C/C1=C(C(=O)O)N2C(=O)/C(=C/c3ccccn3)[C@H]2S(=O)(=O)C1)NCc1ccccc1 | 110 nM |
| O=C(O)C1=C(S(=O)(=O)c2ccccc2)CS(=O)(=O)[C@@H]2/C(=C\c3ccccn3)C(=O)N12 | 174 nM |
| O=C(O)C1=C(Cl)CS(=O)(=O)[C@@H]2/C(=C\c3ccccn3)C(=O)N12 | 3 nM |
| O=C(O)C1=C(c2ccccc2)CS(=O)(=O)[C@@H]2/C(=C\c3ccccn3)C(=O)N12 | 38 nM |
| O=C(/C=C/C1=C(C(=O)O)N2C(=O)/C(=C/c3ccccn3)[C@H]2S(=O)(=O)C1)Nc1c(F)c(F)c(F)c(F)c1F | 127 nM |
| CSC1=C(C(=O)O)N2C(=O)/C(=C/c3ccccn3)[C@H]2S(=O)(=O)C1 | 59 nM |
| CS(=O)(=O)C1=C(C(=O)O)N2C(=O)/C(=C/c3ccccn3)[C@H]2S(=O)(=O)C1 | 90.7 nM |
| O=C(/C=C/C1=C(C(=O)O)N2C(=O)/C(=C/c3ccccn3)[C@H]2S(=O)(=O)C1)NO | 128 nM |
| CN1CCN(C(=O)/C=C/C2=C(C(=O)O)N3C(=O)/C(=C/c4ccccn4)[C@H]3S(=O)(=O)C2)CC1 | 6340 nM |
| O=C(O)C1=C(Sc2ccccc2)CS(=O)(=O)[C@@H]2/C(=C\c3ccccn3)C(=O)N12 | 21.7 nM |
| O=C(/C=C/C1=C(C(=O)O)N2C(=O)/C(=C/c3ccccn3)[C@H]2S(=O)(=O)C1)NC1CC1 | 824 nM |
| NCCCNC(=O)/C=C/C1=C(C(=O)O)N2C(=O)/C(=C/c3ccccn3)[C@H]2S(=O)(=O)C1 | 4200 nM |
| O=C(/C=C/C1=C(C(=O)O)N2C(=O)/C(=C/c3ccccn3)[C@H]2S(=O)(=O)C1)Nc1ccc(O)cc1 | 35 nM |
| O=C(O)CNC(=O)/C=C/C1=C(C(=O)O)N2C(=O)/C(=C/c3ccccn3)[C@H]2S(=O)(=O)C1 | 310 nM |
| NNC(=O)/C=C/C1=C(C(=O)O)N2C(=O)/C(=C/c3ccccn3)[C@H]2S(=O)(=O)C1 | 1100 nM |
| O=C(/C=C/C1=C(C(=O)O)N2C(=O)/C(=C/c3ccccn3)[C@H]2S(=O)(=O)C1)NCC(F)(F)F | 1180 nM |
| N=C(N)NCCNC(=O)/C=C/C1=C(C(=O)O)N2C(=O)/C(=C/c3ccccn3)[C@H]2S(=O)(=O)C1 | 5.5 nM |
| O=C(O)C1=C(I)CS(=O)(=O)[C@@H]2/C(=C\c3ccccn3)C(=O)N12 | 4.7 nM |
| O=C(O)C1=C(Br)CS(=O)(=O)[C@@H]2/C(=C\c3ccccn3)C(=O)N12 | 2.9 nM |
| O=C(O)C1=C(c2cccs2)CS(=O)(=O)[C@@H]2/C(=C\c3ccccn3)C(=O)N12 | 40.3 nM |
| O=C(O)C1=C(F)CS(=O)(=O)[C@@H]2/C(=C\c3ccccn3)C(=O)N12 | 11 nM |
| O=C(O)C1=C(C(=O)O)N2C(=O)/C(=C/c3ccccn3)[C@H]2S(=O)(=O)C1 | 32 nM |
| O=C(/C=C/C1=C(C(=O)O)N2C(=O)/C(=C/c3ccccn3)[C@H]2S(=O)(=O)C1)NCCO | 212 nM |
